Source: ChEMBL document CHEMBL4219265, “Piperlongumine derivative, CG-06, inhibits STAT3 activity by direct binding to STAT3 and regulating the reactive oxygen species in DU145 prostate carcinoma cells” (Bioorg Med Chem Lett, 2018)

How the values were obtained:
DU-145 [1] = assay: Growth inhibition of human DU145 cells after 48 hrs by WST-1 assay; type: functional; conditions: DU-145, 48 h
LNCaP [2] = assay: Growth inhibition of human LNCAP cells after 48 hrs by WST-1 assay; type: functional
[3] = molecular target: T1, Signal transducer and activator of transcription 3 (Homo sapiens, UniProt P40763); assay: Inhibition of STAT3 phosphorylation at Tyr705 residues in human DU145 cells at 5 uM after 24 hrs by Western blot analysis; type: cell-based
[4] = molecular target: T1, Signal transducer and activator of transcription 3; assay: Inhibition of STAT3 phosphorylation at Tyr705 residues in human DU145 cells assessed as ratio of phosphorylated STAT3 protein level to GAPDH protein level at 0.5 uM after 24 hrs by Western blot analysis (reference value: 1); type: cell-based
DU-145 [5] = assay: Effect on total STAT3 protein level in human DU145 cells assessed as ratio of STAT3 protein level to GAPDH protein level at 0.5 uM after 24 hrs by Western blot analysis (reference value: 1); type: ADME, cell-based; conditions: du-145, 24 h
DU-145 [6] = assay: Effect on total STAT3 protein level in human DU145 cells assessed as ratio of STAT3 protein level to GAPDH protein level at 1 uM after 24 hrs by Western blot analysis (reference value: 1); type: ADME, cell-based; conditions: du-145, 24 h
[7] = molecular target: T1, Signal transducer and activator of transcription 3; assay: Inhibition of STAT3 in human DU145 cells assessed as ratio of Bcl-xl protein level to tubulin protein level at 5 uM after 48 hrs by Western blot analysis (reference value: 1); type: cell-based
LNCaP [8] = assay: Effect on total STAT3 protein level in human LNCAP cells assessed as ratio of STAT3 protein level to GAPDH protein level at 5 uM after 12 hrs by Western blot analysis (reference value: 1); type: ADME, cell-based
LNCaP [9] = assay: Effect on total STAT3 protein level in IL-6 stimulated human LNCAP cells assessed as ratio of STAT3 protein level to GAPDH protein level at 5 uM preincubated for 12 hrs followed by IL-6 stimulation for 30 mins by Western blot analysis (reference value: 1.3); type: ADME, cell-based; conditions: 0.5 h
DU-145 [10] = assay: Cell cycle arrest in human DU145 cells assessed as accumulation at S phase at 5 uM after 48 hrs by flow cytometry (reference value: 6.6%); type: functional
[11] = molecular target: T1, Signal transducer and activator of transcription 3; assay: Binding affinity to STAT3 in human DU145 cell lysates assessed as reduction in pronase-induced STAT3 digestion by measuring ratio of STAT3 protein level to GAPDH protein level at 50 uM incubated for 1 hr followed by 0.005% pronase addition for 10 mins by Western blot analysis (reference value: 0.9)
[12] = molecular target: T1, Signal transducer and activator of transcription 3; assay: Stabilization of STAT3 in human DU145 cell lysates by measuring ratio of STAT3 protein level to GAPDH protein level at 50 uM incubated for 1 hr in absence of pronase by Western blot analysis (reference value: 1)
[13] = molecular target: T1, Signal transducer and activator of transcription 3; assay: Binding affinity to STAT3 in human DU145 cell lysates assessed as reduction in pronase-induced STAT3 digestion by measuring ratio of STAT3 protein level to GAPDH protein level at 50 uM incubated for 1 hr in absence of pronase by Western blot analysis (reference value: 1)
[14] = molecular target: T1, Signal transducer and activator of transcription 3; assay: Binding affinity to STAT3 in human DU145 cell lysates assessed as reduction in pronase-induced STAT3 digestion by measuring ratio of STAT3 protein level to GAPDH protein level at 100 uM incubated for 1 hr followed by 0.05% pronase addition for 10 mins by Western blot analysis (reference value: 1)
DU-145 [15] = assay: Induction of intracellular ROS generation in human DU145 cells at 5 uM by DCFH-DA probe based flow cytometry; type: functional, cell-based; conditions: TDE = time-dependent effect
[16] = molecular target: T1, Signal transducer and activator of transcription 3; assay: Inhibition of STAT3-induced ERK1/2 phosphorylation in human DU145 cells assessed as ratio of phosphorylated ERK1/2 protein level to GAPDH protein level at 5 uM after 0.5 hrs by Western blot analysis (reference value: 1); type: cell-based
[17] = molecular target: T1, Signal transducer and activator of transcription 3; assay: Inhibition of STAT3-induced ERK1/2 phosphorylation in human DU145 cells assessed as ratio of phosphorylated ERK1/2 protein level to GAPDH protein level at 5 uM after 3 hrs by Western blot analysis (reference value: 1); type: cell-based
DU-145 [18] = assay: Effect on total ERK1/2 protein level in human DU145 cells assessed as ratio of ERK1/2 protein level to GAPDH protein level at 5 uM after 1 hr by Western blot analysis (reference value: 1); type: ADME, cell-based; conditions: du-145, 1 h

T1 sequence (P40763 whole entry): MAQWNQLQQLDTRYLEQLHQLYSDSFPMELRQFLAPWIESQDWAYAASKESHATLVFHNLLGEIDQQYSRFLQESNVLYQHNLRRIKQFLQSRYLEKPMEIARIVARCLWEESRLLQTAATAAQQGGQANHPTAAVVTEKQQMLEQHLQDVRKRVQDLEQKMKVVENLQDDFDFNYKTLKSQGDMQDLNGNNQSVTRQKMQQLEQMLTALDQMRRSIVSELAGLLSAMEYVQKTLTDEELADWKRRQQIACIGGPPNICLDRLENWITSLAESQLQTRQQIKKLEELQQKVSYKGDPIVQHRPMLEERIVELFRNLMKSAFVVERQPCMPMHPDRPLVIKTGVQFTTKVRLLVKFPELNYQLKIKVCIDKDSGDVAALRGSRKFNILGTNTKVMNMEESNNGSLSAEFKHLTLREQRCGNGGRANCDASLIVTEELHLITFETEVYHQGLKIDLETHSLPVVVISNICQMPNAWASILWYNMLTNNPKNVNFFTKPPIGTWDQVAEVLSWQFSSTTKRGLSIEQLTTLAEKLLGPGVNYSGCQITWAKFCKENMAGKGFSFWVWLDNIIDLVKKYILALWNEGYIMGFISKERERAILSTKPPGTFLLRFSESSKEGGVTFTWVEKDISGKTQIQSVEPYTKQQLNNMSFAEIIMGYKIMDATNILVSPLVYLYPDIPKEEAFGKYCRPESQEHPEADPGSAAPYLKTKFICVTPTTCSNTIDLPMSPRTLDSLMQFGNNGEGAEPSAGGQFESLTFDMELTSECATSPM

C=C(C)C(=O)N(Cc1ccc(Br)cc1)C(=O)/C=C/c1cc(OC)c(OC)c(OC)c1
GI50 (DU-145 [1]): 0.9 µM
GI50 (LNCaP [2]): 7.7 µM
inhibition [3]: > 70%
Ratio [4]: 0.7
Ratio (DU-145 [5]): 1.1
Ratio (DU-145 [6]): 1.1
Ratio [7]: 1
Ratio (LNCaP [8]): 1.2
Ratio (LNCaP [9]): 1.1
Activity (DU-145 [10]): 6.57%
Ratio [11]: 0.8
Ratio [12]: 1
Ratio [13]: 1.1
Ratio [14]: 2.3
Activity (DU-145 [15]): Tde
Ratio [16]: 1.6
Ratio [17]: 2
Ratio (DU-145 [18]): 1.1
